Experimental data published in patent publication US20070010556A1, “Thiophene derivatives as chk 1 inhibitors” (ASTRAZENECA AB, priority 2004, published 2007).

Target: T1, CHK1 kinase (Homo sapiens, UniProt O14757)
T1 construct: The kinase domain is expressed in baculovirus and purified by the GST tag; GST; made in house
T1 sequence (O14757 9-265 limits assumed): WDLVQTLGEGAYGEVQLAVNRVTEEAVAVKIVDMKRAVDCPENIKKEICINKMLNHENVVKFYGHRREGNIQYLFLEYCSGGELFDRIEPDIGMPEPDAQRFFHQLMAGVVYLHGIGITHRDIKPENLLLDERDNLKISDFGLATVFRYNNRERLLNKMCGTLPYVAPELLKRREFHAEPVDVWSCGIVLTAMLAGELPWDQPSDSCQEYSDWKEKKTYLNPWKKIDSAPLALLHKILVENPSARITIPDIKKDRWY
Test: Checkpoint Kinase 1 Assay (Scintillation Proximity Assay)
Format: biochemical
Description: Checkpoint Kinase 1 Assay: This in vitro assay measures the inhibition of CHK1 kinase by compounds. The kinase domain is expressed in baculovirus and purified by the GST tag. Purified protein and biotinylated peptide substrate (Cdc25C) is then used in a 384 well automated Scintillation Proximity Assay (SPA). Specifically, peptide, enzyme and reaction buffer are mixed and aliquoted into a 384 well plate containing dilution series of compounds and controls. Cold and hot ATP are then added to initiate the reaction. After 2 hours, a SPA bead slurry, […] and EDTA are added to stop the reaction and capture the biotinylated peptide. Plates are then counted on a Topcount. Data is analyzed and IC50s determined for individual compounds.

Row | IC50 | SMILES
1 | 0.12 nM | O=C(Nc1cnccn1)Nc1cc(-c2ccc(Cl)cc2)sc1C(=O)N[C@H]1CCCNC1 [Example 263, 5-(4-Chloro-phenyl)-3-(3-pyrazin-2-yl-ureido)-thiophene-2-carboxylic acid (S)-piperidin-3-ylamide]
2 | 0.14 nM | COc1ccc(F)cc1-c1cc(C(=O)N[C@H]2CCCCNC2)c(NC(N)=O)s1 [Example 97]
